Results reported in patent publication US20210112813A1, “HERBICIDAL COMPOSITION AND USE THEREOF” (NANTONG JIANGSHAN AGROCHEMICAL & CHEMICALS CO., LTD., priority 2019, published 2021).

Tests used:
Format in all cases: in vivo
Eclipta alba = assay: Greenhouse pot test, pre-emergence soil treatment, visual control effect 30 days after treatment, Gowing method
Bristlegrass [1] = assay: as above
Experimental: In the present application, indoor combined action of the compound of herbicide active component A and B on weeds was measured to determine the combined effect of the composition on weeds, wherein the structure of the active component A was as follows:
The weed cultivation method was as follows: quantitative weed seeds abutilon and bristlegrass were respectively sown in a paper cup filled with nutrient soil with a diameter of 7 cm, and then cultivated in the greenhouse after covering the soil, suppressing and watering. The post-emergence stem and leaf treatment was performed when the grass weeds grew to 5-7 leaf stage, broad-leaved weeds grew to 6-8 leaf stage; the pre-emergence soil treatment was performed the second day after sowing, and the early post-emergence treatment was performed after sowing and before emergence; the experiment was repeated 3 times. After the treatment and drug solution naturally dried, the weeds were placed in the greenhouse to be managed according to conventional methods. According to the suppression or death of the weeds, a visual control effect investigation was conducted 30 days after the treatment. The application adopted the Gowing method to evaluate the combined effect of the proposed composition.
(§1) X—Weed control effect when the amount of herbicide component A is P;
(§2) Y—Weed control effect when the amount of herbicide component B is Q;
(§3) E0—Theoretical control effect when the amount of herbicide component A is […];
(§4) E—The measured control effect after the herbicide component A and the herbicide component B are mixed according to the above ratio.
(§5) When E−E0>10%, it is synergism; when E−E0<−10%, it is antagonism; when E−E0 value is between ±10%, it is addition.

[2] = system: goosegrass (collected from Zhengzhou, Henan); assay: Example 13 combined effect on weeds, Gowing method
Experimental: (§6) The weed cultivation and test material cultivation method was as follows: quantitative weed seeds abutilon and bristlegrass were respectively sown in a paper cup filled with nutrient soil with a diameter of 7 cm, and then cultivated in the greenhouse after covering the soil, suppressing and watering. The stem and leaf spray treatment was performed when the grass weeds grew to 5-7 leaf stage, and broad-leaved weeds grew to 6-8 leaf stage; the tests were repeated for 3 times. the treatment and drug solution naturally dried, the weeds were placed in the greenhouse to be managed according to conventional methods. According to the suppression or death of the weeds, a visual control effect investigation was conducted 30 days after the treatment.
(§7) The application adopted the Gowing method to evaluate the combined effect of the proposed composition.
as §1, §2, §3, §4, §5
(§8) The test targets were horseweed herb collected from Shenyang, Liaoning and goosegrass collected from Zhengzhou, Henan.

[3] = system: Horseweed herb (collected from Shenyang, Liaoning); assay: Example 13 combined effect on weeds, Gowing method
Experimental: as §6, §7, §1, §2, §3, §4, §5, §8

Bristlegrass [4] = assay: Example 12 indoor pot experiment, stem and leaf spray, visual control effect 30 days after treatment, Gowing method
Experimental: (§9) The combined effect of the composition on the weeds was clarified by the indoor pot experiment.
as §6, §7, §1, §2, §3, §4, §5

Abutilon [5] = assay: as above
Experimental: as §9, §6, §7, §1, §2, §3, §4, §5

Echinochloacrusgalli = assay: Example 15 indoor pot planting, death rate / herbicidal speed, weeds in 6-leaf stage
Experimental: (§10) The death rate of weeds after application of the herbicidal composition of the present application was measured and compared with the herbicidal rate when a single component was used. The test used the method of indoor pot planting. At the time of treatment, abutilon and barnyardgrass were in 6-leaf stage.

Abutilon [6] = assay: as above
Experimental: as §10

[7] = Example 13 Table 2, dose 37.5 ga.i./hm^2
[8] = Example 13 Table 2, dose 75 ga.i./hm^2
[9] = Example 13 Table 2, dose 150 ga.i./hm^2
[10] = Example 13 Table 2, dose 300 ga.i./hm^2
[11] = Example 12 Table 1, dose 37.5 ga.i./hm^2
[12] = Example 12 Table 1, dose 75 ga.i./hm^2
[13] = Example 12 Table 1, dose 150 ga.i./hm^2
[14] = Example 12 Table 1, dose 300 ga.i./hm^2
[15] = Table 11, 7 days after treatment, dose 50 ga.i./hm^2
[16] = Table 11, 7 days after treatment, dose 100 ga.i./hm^2
[17] = Table 11, 7 days after treatment, dose 200 ga.i./hm^2
[18] = Table 11, 7 days after treatment, dose 400 ga.i./hm^2
[19] = Table 11, 15 days after treatment, dose 50 ga.i./hm^2
[20] = Table 11, 15 days after treatment, dose 100 ga.i./hm^2
[21] = Table 11, 15 days after treatment, dose 200 ga.i./hm^2
[22] = Table 11, 15 days after treatment, dose 400 ga.i./hm^2
[23] = Table 11, 30 days after treatment, dose 50 ga.i./hm^2
[24] = Table 11, 30 days after treatment, dose 100 ga.i./hm^2
[25] = Table 11, 30 days after treatment, dose 200 ga.i./hm^2
[26] = Table 11, 30 days after treatment, dose 400 ga.i./hm^2

Structure (SMILES): CCOCN(C(=O)CCl)c1c(C)cccc1CC [Acetochlor]
- Measured value E (Eclipta alba; Table 3, dose 75 ga.i./hm^2): 10%
- Measured value E (Eclipta alba; Table 3, dose 150 ga.i./hm^2): 35%
- Measured value E (Bristlegrass [1]; Table 3, dose 75 ga.i./hm^2): 50%
- Measured value E (Bristlegrass [1]; Table 3, dose 150 ga.i./hm^2): 75%

Structure (SMILES): CCCCOCN(C(=O)CCl)c1c(CC)cccc1CC [Butachlor]
- Measured value E (Eclipta alba; Table 3, dose 75 ga.i./hm^2): 15%
- Measured value E (Eclipta alba; Table 3, dose 150 ga.i./hm^2): 25%
- Measured value E (Bristlegrass [1]; Table 3, dose 75 ga.i./hm^2): 45%
- Measured value E (Bristlegrass [1]; Table 3, dose 150 ga.i./hm^2): 60%

Structure (SMILES): CC(C)N.O=C(O)CNCP(=O)(O)O [Glyphosate isopropylamine]
- Measured value E [2, 7]: 5%
- Measured value E [2, 8]: 25%
- Measured value E [2, 9]: 50%
- Measured value E [2, 10]: 65%
- Measured value E [3, 7]: 25%
- Measured value E [3, 8]: 35%
- Measured value E [3, 9]: 65%
- Measured value E [3, 10]: 70%
- Measured value E (Bristlegrass [4]; [11]): 0%
- Measured value E (Bristlegrass [4]; [12]): 15%
- Measured value E (Bristlegrass [4]; [13]): 30%
- Measured value E (Bristlegrass [4]; [14]): 45%
- Measured value E (Abutilon [5]; [11]): 10%
- Measured value E (Abutilon [5]; [12]): 20%
- Measured value E (Abutilon [5]; [13]): 50%
- Measured value E (Abutilon [5]; [14]): 65%
- Control effect (visual observation %) (Echinochloacrusgalli; [15]): 4.1%
- Control effect (visual observation %) (Echinochloacrusgalli; [16]): 36.9%
- Control effect (visual observation %) (Echinochloacrusgalli; [17]): 62.2%
- Control effect (visual observation %) (Echinochloacrusgalli; [18]): 66.7%
- Control effect (visual observation %) (Echinochloacrusgalli; [19]): 34.3%
- Control effect (visual observation %) (Echinochloacrusgalli; [20]): 48.7%
- Control effect (visual observation %) (Echinochloacrusgalli; [21]): 63.9%
- Control effect (visual observation %) (Echinochloacrusgalli; [22]): 64.5%
- Control effect (visual observation %) (Echinochloacrusgalli; [23]): 29.6%
- Control effect (visual observation %) (Echinochloacrusgalli; [24]): 68.5%
- Control effect (visual observation %) (Echinochloacrusgalli; [25]): 100%
- Control effect (visual observation %) (Echinochloacrusgalli; [26]): 99.0%
- Control effect (visual observation %) (Abutilon [6]; [15]): 5.8%
- Control effect (visual observation %) (Abutilon [6]; [16]): 16.2%
- Control effect (visual observation %) (Abutilon [6]; [17]): 24.6%
- Control effect (visual observation %) (Abutilon [6]; [18]): 43.5%
- Control effect (visual observation %) (Abutilon [6]; [19]): 9.0%
- Control effect (visual observation %) (Abutilon [6]; [20]): 26.2%
- Control effect (visual observation %) (Abutilon [6]; [21]): 38.3%
- Control effect (visual observation %) (Abutilon [6]; [22]): 38.0%
- Control effect (visual observation %) (Abutilon [6]; [23]): 6.8%
- Control effect (visual observation %) (Abutilon [6]; [24]): 20.0%
- Control effect (visual observation %) (Abutilon [6]; [25]): 62.6%
- Control effect (visual observation %) (Abutilon [6]; [26]): 79.9%
